In patent US20120190613A1, “ECHINOCANDIN DERIVATIVES” (priority 2009, published 2012):
≈ marks a conversion by molar mass, not a printed value. Marks after values point to notes of the source that are not given here.

Experiments:
C. albicans R303 = test: Mouse candidiasis infection model, C. albicans density in kidneys; type: in vivo, female CD-1 mice; settings: for Difference from 24-hr control / Mean log10 CFU/kidneys (±SD) / Difference from 24-h control / Mean log10 CFU/kidneys (±SEM): kidneys at 24 hr
Procedure: The objective of these studies was to evaluate the efficacy of test compounds in the mouse candidiasis infection model.
The strain, C. albicans R303 was transferred from frozen storage onto Sabauroud dextrose agar (SDA) plates and grown for ˜24 hr at 35° C. The inoculum was prepared by transferring colonies from the plate to phosphate buffered saline (PBS) and the concentration adjusted to 10^6 CFU/mL with the aid of a spectrophotometer. The stock was diluted 1:9 to prepare the inoculum. Prior to each run the concentration was verified using the dilution plate count method.
The female CD-1 mice used in this study were obtained from Charles River Laboratories, Portage, MI. The animals were approximately seven-weeks-old at the start of the study and weighed about 16-26 g.
In one approach, mice were made neutropenic with IP injections of cyclophosphamide (150 mg/kg in 10 mL/kg) at 4 and 1 day before inoculation. Each animal was inoculated with the appropriate concentration by injecting 0.1 mL of inoculum into a tail vein. The test compounds were administered IP at 2 hr after infection.
The kidneys were collected from four mice in control group 1 (untreated) at 2 hr after infection, and from the remaining mice in the study at 24 hr after infection. Kidneys were removed aseptically from each mouse and were combined in a sterile tube. An aliquot (2 mL) of sterile PBS was added to each tube and the contents homogenized with a tissue homogenizer (Polytron 3100). Serial dilutions of the tissue homogenates were conducted and 0.1 mL aliquots were spread on SDA plates and the plates incubated at 35° C. overnight. The CFU/kidneys were determined from colony counts. Data were analyzed using one-way ANOVA with the Tukey-Kramer Multiple Comparisons Test (GraphPad InStat version 3.06, GraphPad Software, San Diego, Calif.).
Treatments were administered at 2 hr after infection with 2.1×10^5 CFU/mL of the organism. Data are the means of four mice.
Treatments were administered at 2 hr after infection with 6.4×10^5 CFU/mL of the organism. Data are the means of four mice.
Treatments were administered at 2 hr after infection with 3.8×10^5 CFU/mL of the organism. Data are the means of four mice.
Treatments were administered at 2 hr after infection with 3.8×10^5 CFU/rnL of the organism. Data are the means of four mice.

[1] = system: C. albicans 104 ATCC 90028; test: MIC by broth microdilution against C. albicans; type: cell-based; settings: 48 hr
Procedure: (§1) MIC values (μg/mL) of echinocandin class compounds of the invention against various Candida and Aspergillus species were obtained as follows. Test organisms were obtained from the American Type Culture Collection (Manassas, Va.). The isolates were maintained at −80 ° C., then thawed and sub-cultured one day prior to testing (seven days for Aspergillus strains).
(§2) The mouse serum was heat-inactivated for 30 minutes at 56° C., and filtered through a 0.2 μm low protein binding filter unit prior to use.
(§3) MIC values were determined using broth microdilution. The wells of the daughter plates ultimately contained 180 μL of RPMI-1640 medium with and without mouse serum, 10 μL of drug solution, and 10 μL of yeast or fungal inoculum.
(§4) Prior to susceptibility testing, fungal isolates were removed from frozen storage, thawed at room temperature, and subcultured to Potato Dextrose Agar. The Candida strains were incubated overnight at 35° C. and the Aspergillus strains for 7 days at 25° C. Yeast colonies were inoculated into sterile saline and adjusted to the turbidity of a 0.5 McFarland standard. Inoculums from Aspergillus strains were prepared by washing the surface of an agar slant with 1 mL of sterile saline containing 0.05% of Tween 20. The resulting colloidial suspensions were adjusted to an optical density of 0.09 to 0.11 at λ 625 nm.
(§5) Both the yeast and filamentous fungus suspensions were further diluted 1:100 in RPMI-1640 medium and dispensed into sterile reservoirs and used to inoculate the daughter plates. 10 μL of standardized inoculum was delivered into each well. This yielded a final cell concentration in the daughter plates of approximately 2.5×10^3 colony-forming units/mL. Plates were incubated at 35° C. for approximately 48 hr.
(§6) Following incubation, microplates were viewed from the bottom using a plate viewer.

A. flavus 626 ATCC 64025 = test: MIC by broth microdilution against A. flavus; type: cell-based; settings: 48 hr, growth reduction of 50%
Procedure: as §1, §2, §3, §4, §5, §6

[2] = system: C. parapsilosis 630 ATCC 90018; test: MIC by broth microdilution against C. parapsilosis; type: cell-based; settings: 48 hr
Procedure: as §1, §2, §3, §4, §5, §6

[3] = Second run, 5 mg/kg IP 2 hr after infection
[4] = Fourth run, 0.5 mg/kg IP 2 hr after infection
[5] = Fourth run, 1.5 mg/kg IP 2 hr after infection
[6] = Fourth run, 4.5 mg/kg IP 2 hr after infection
[7] = Third run, 0.5 mg/kg IP 2 hr after infection
[8] = Third run, 1.5 mg/kg IP 2 hr after infection
[9] = Third run, 4.5 mg/kg IP 2 hr after infection

CCC(C)CC(C)CCCCCCCCC(=O)NC1CC(O)C(NCCNCCOC)NC(=O)C2C(O)CCN2C(=O)C(C(O)CCN)NC(=O)C(C(O)C(O)c2ccc(O)cc2)NC(=O)C2CC(O)CN2C(=O)C(C(C)O)NC1=O (stereo not drawn) [Compound 13]
Difference from 24-hr control (C. albicans R303; [3]): −4.55*** log10 CFU/kidneys
Mean log10 CFU/kidneys (±SD) (C. albicans R303; [3]): 0.65 ± 0.75 log10 CFU/kidneys

CCC(C)CC(C)CCCCCCCCC(=O)NC1CC(O)C(NCCOCCOCCOCCOC)NC(=O)C2C(O)CCN2C(=O)C(C(O)CCN)NC(=O)C(C(O)C(O)c2ccc(O)cc2)NC(=O)C2CC(O)CN2C(=O)C(C(C)O)NC1=O (stereo not drawn) [Compound 16]
Difference from 24-h control (C. albicans R303; [4]): −0.16 ns log10 CFU/kidneys
Mean log10 CFU/kidneys (±SEM) (C. albicans R303; [4]): 5.05 ± 0.12 log10 CFU/kidneys
Difference from 24-h control (C. albicans R303; [5]): −0.04 ns log10 CFU/kidneys
Mean log10 CFU/kidneys (±SEM) (C. albicans R303; [5]): 5.16 ± 0.03 log10 CFU/kidneys
Difference from 24-h control (C. albicans R303; [6]): −0.42 ns log10 CFU/kidneys
Mean log10 CFU/kidneys (±SEM) (C. albicans R303; [6]): 4.78 ± 0.18 log10 CFU/kidneys
Effect on density of C. albicans in the kidneys (C. albicans R303; Fourth run, all dose levels (0.5, 1.5, 4.5 mg/kg)): ineffective

CCC(C)CC(C)CCCCCCCCC(=O)NC1CC(O)C(NCCN)NC(=O)C2C(O)CCN2C(=O)C(C(O)CCNC(=O)OCCOC)NC(=O)C(C(O)C(O)c2ccc(O)cc2)NC(=O)C2CC(O)CN2C(=O)C(C(C)O)NC1=O (stereo not drawn) [Compound 14]
Difference from 24-hr control (C. albicans R303; [3]): −1.13 ns log10 CFU/kidneys
Mean log10 CFU/kidneys (±SD) (C. albicans R303; [3]): 4.07 ± 0.17 log10 CFU/kidneys

CCC(C)CC(C)CCCCCCCCC(=O)NC1CC(O)C(NCCNC(=O)CCCCCCCOCCOCCOCCOCCOCCOCCOCCOC)NC(=O)C2C(O)CCN2C(=O)C(C(O)CCN)NC(=O)C(C(O)C(O)c2ccc(O)cc2)NC(=O)C2CC(O)CN2C(=O)C(C(C)O)NC1=O (stereo not drawn) [Compound 3]
MIC ([1]; 0% mouse serum): 2 µg/mL (≈ 1.28 µM)
MIC ([1]; 50% mouse serum): >16 µg/mL
MIC (A. flavus 626 ATCC 64025; 0% mouse serum): 2 µg/mL (≈ 1.28 µM)
MIC (A. flavus 626 ATCC 64025; 50% mouse serum): 8 µg/mL (≈ 5.14 µM)
MIC ([2]; 0% mouse serum): >16 µg/mL
MIC ([2]; 50% mouse serum): >16 µg/mL

CCCCCOc1ccc(-c2ccc(-c3ccc(C(=O)NC4CC(O)C(OCCOC)NC(=O)C5C(O)C(C)CN5C(=O)C(C(C)O)NC(=O)C(C(O)C(O)c5ccc(O)cc5)NC(=O)C5CC(O)CN5C(=O)C(C(C)O)NC4=O)cc3)cc2)cc1 (stereo not drawn) [Compound 18]
Difference from 24-hr control (C. albicans R303; [3]): −3.44*** log10 CFU/kidneys
Mean log10 CFU/kidneys (±SD) (C. albicans R303; [3]): 1.76 ± 0.44 log10 CFU/kidneys

CCC(C)CC(C)CCCCCCCCC(=O)NC1CC(O)C(OCCOCCOCCOCCOC)NC(=O)C2C(O)CCN2C(=O)C(C(O)CC(N)=O)NC(=O)C(C(O)C(O)c2ccc(O)cc2)NC(=O)C2CC(O)CN2C(=O)C(C(C)O)NC1=O (stereo not drawn) [Compound 8]
MIC ([1]; 0% mouse serum): 8 µg/mL (≈ 6.37 µM)
MIC ([1]; 50% mouse serum): >16 µg/mL
MIC (A. flavus 626 ATCC 64025; 0% mouse serum): 0.5 µg/mL (≈ 0.398 µM)
MIC (A. flavus 626 ATCC 64025; 50% mouse serum): 2 µg/mL (≈ 1.59 µM)
MIC ([2]; 0% mouse serum): >16 µg/mL
MIC ([2]; 50% mouse serum): >16 µg/mL

CCC(C)CC(C)CCCCCCCCC(=O)NC1CC(O)C(NCCNC(=O)OCCOCCOCCOC)NC(=O)C2C(O)CCN2C(=O)C(C(O)CCN)NC(=O)C(C(O)C(O)c2ccc(O)cc2)NC(=O)C2CC(O)CN2C(=O)C(C(C)O)NC1=O (stereo not drawn) [Compound 12]
Difference from 24-hr control (C. albicans R303; [3]): −0.78 ns log10 CFU/kidneys
Mean log10 CFU/kidneys (±SD) (C. albicans R303; [3]): 4.42 ± 0.14 log10 CFU/kidneys

CCC(C)CC(C)CCCCCCCCC(=O)NC1CC(O)C(NCCN)NC(=O)C2C(O)CCN2C(=O)C(C(O)CCNC(=O)OCCOCCOCCOC)NC(=O)C(C(O)C(O)c2ccc(O)cc2)NC(=O)C2CC(O)CN2C(=O)C(C(C)O)NC1=O (stereo not drawn) [Compound 15]
Difference from 24-hr control (C. albicans R303; [3]): −0.45 ns log10 CFU/kidneys
Mean log10 CFU/kidneys (±SD) (C. albicans R303; [3]): 4.75 ± 0.20 log10 CFU/kidneys

CCCCCOc1ccc(-c2ccc(-c3ccc(C(=O)NC4CC(O)C(OCCOCCOC)NC(=O)C5C(O)C(C)CN5C(=O)C(C(C)O)NC(=O)C(C(O)C(O)c5ccc(O)cc5)NC(=O)C5CC(O)CN5C(=O)C(C(C)O)NC4=O)cc3)cc2)cc1 (stereo not drawn) [Compound 19]
Difference from 24-hr control (C. albicans R303; [3]): −3.49*** log10 CFU/kidneys
Mean log10 CFU/kidneys (±SD) (C. albicans R303; [3]): 1.71 ± 0.35 log10 CFU/kidneys
Difference from 24-hr control (C. albicans R303; [7]): −0.03 ns log10 CFU/kidneys
Mean log10 CFU/kidneys (±SEM) (C. albicans R303; [7]): 4.84 ± 0.26 log10 CFU/kidneys
Difference from 24-hr control (C. albicans R303; [8]): −2.06*** log10 CFU/kidneys
Mean log10 CFU/kidneys (±SEM) (C. albicans R303; [8]): 2.82 ± 0.10 log10 CFU/kidneys
Difference from 24-hr control (C. albicans R303; [9]): −3.82*** log10 CFU/kidneys
Mean log10 CFU/kidneys (±SEM) (C. albicans R303; [9]): 1.05 ± 0.36 log10 CFU/kidneys

CCCCCOc1ccc(-c2ccc(-c3ccc(C(=O)NC4CC(O)C(OCCOCCOCCOC)NC(=O)C5C(O)C(C)CN5C(=O)C(C(C)O)NC(=O)C(C(O)C(O)c5ccc(O)cc5)NC(=O)C5CC(O)CN5C(=O)C(C(C)O)NC4=O)cc3)cc2)cc1 (stereo not drawn) [Compound 20]
Difference from 24-hr control (C. albicans R303; [3]): −3.27*** log10 CFU/kidneys
Mean log10 CFU/kidneys (±SD) (C. albicans R303; [3]): 1.93 ± 0.44 log10 CFU/kidneys

CCCCCOc1ccc(-c2ccc(-c3ccc(C(=O)NC4CC(O)C(OCCOCCO)NC(=O)C5C(O)C(C)CN5C(=O)C(C(C)O)NC(=O)C(C(O)C(O)c5ccc(O)cc5)NC(=O)C5CC(O)CN5C(=O)C(C(C)O)NC4=O)cc3)cc2)cc1 (stereo not drawn) [Compound 21]
Difference from 24-hr control (C. albicans R303; [7]): −1.53** log10 CFU/kidneys
Mean log10 CFU/kidneys (±SEM) (C. albicans R303; [7]): 3.35 ± 0.08 log10 CFU/kidneys
Difference from 24-hr control (C. albicans R303; [8]): −2.62*** log10 CFU/kidneys
Mean log10 CFU/kidneys (±SEM) (C. albicans R303; [8]): 2.26 ± 0.12 log10 CFU/kidneys
Difference from 24-hr control (C. albicans R303; [9]): −4.22*** log10 CFU/kidneys
Mean log10 CFU/kidneys (±SEM) (C. albicans R303; [9]): 0.65 ± 0.38 log10 CFU/kidneys
Effect on density of C. albicans in the kidneys compared to the infected controls (C. albicans R303; Third run, all dose levels (0.5, 1.5, 4.5 mg/kg)): significantly reduced the density

CCC(C)CC(C)CCCCCCCCC(=O)NC1CC(O)C(NCCOC)NC(=O)C2C(O)CCN2C(=O)C(C(O)CCN)NC(=O)C(C(O)C(O)c2ccc(O)cc2)NC(=O)C2CC(O)CN2C(=O)C(C(C)O)NC1=O (stereo not drawn) [Compound 17]
Effect on density of C. albicans in the kidneys (C. albicans R303; Fourth run, 0.5 mg/kg): not
Difference from 24-h control (C. albicans R303; [4]): −0.87 ns log10 CFU/kidneys
Mean log10 CFU/kidneys (±SEM) (C. albicans R303; [4]): 4.33 ± 0.14 log10 CFU/kidneys
Difference from 24-h control (C. albicans R303; [5]): −2.09*** log10 CFU/kidneys
Mean log10 CFU/kidneys (±SEM) (C. albicans R303; [5]): 3.11 ± 0.14 log10 CFU/kidneys
Difference from 24-h control (C. albicans R303; [6]): −4.25*** log10 CFU/kidneys
Mean log10 CFU/kidneys (±SEM) (C. albicans R303; [6]): 0.95 ± 0.55 log10 CFU/kidneys
Effect on density of C. albicans in the kidneys (C. albicans R303; Fourth run, 4.5 and 1.5 mg/kg): significantly reduced the density
